Reference: patent US20230255953A1, “USE OF ROLUPERIDONE IN PREVENTING RELAPSE IN SCHIZOPHRENIA PATIENTS” (Minerva Neurosciences, Inc., priority 2022, published 2023)

System: patients with negative symptoms of schizophrenia
Experiment: Study #1 (MIN-101C03) Phase 2b: PANSS-derived scores (PSM, NSFS, total, subscales)
Type: in vivo, human
Settings: for Change from Baseline LS Mean: 3-Factor General Psychopathology Subscale Score / Change from Baseline LS Mean: 3-Factor Negative Subscale Score / Change from Baseline LS Mean: 3-Factor Positive Subscale Score / Change from Baseline LS Mean: 5-Factor Activation Score (PSM) / Change from Baseline LS Mean: 5-Factor Autistic Preoccupation Score (PSM) / Change from Baseline LS Mean: 5-Factor Dysphoric Mood Score (PSM) / Change from Baseline LS Mean: 5-Factor Positive Score (PSM) / Change from Baseline LS Mean: NSFS (post-hoc) / Change from Baseline LS Mean: PANSS Negative Factor Score (pentagonal structure model) / Change from Baseline LS Mean: PANSS Total Score / Effect Size vs Placebo: 3-Factor General Psychopathology Subscale Score / Effect Size vs Placebo: 3-Factor Negative Subscale Score / Effect Size vs Placebo: 3-Factor Positive Subscale Score / Effect Size vs Placebo: 5-Factor Activation Score (PSM) / Effect Size vs Placebo: 5-Factor Autistic Preoccupation Score (PSM) / Effect Size vs Placebo: 5-Factor Dysphoric Mood Score (PSM) / Effect Size vs Placebo: 5-Factor Positive Score (PSM) / Effect Size vs Placebo: NSFS (post-hoc) / Effect Size vs Placebo: PANSS Negative Factor Score (pentagonal structure model) / Effect Size vs Placebo: PANSS Total Score: ITT
Excerpt: “PANSS”, as used herein, refers to the positive and negative syndrome scale, which is used by physicians and clinicians to measure the severity of the symptoms in a schizophrenia patient. The scale is divided into three parts, a positive scale, which provides a “PANSS positive subscore”, a negative scale, which provides a “PANSS negative subscore”, and general psychopathology scale. The sum of these three parts provides a PANSS total score, which ranges from 30 to 210 (where higher scores indicate more severe symptoms). (Kay, S. R., et al. “The positive and negative syndrome scale (PANSS) for schizophrenia,” Schizophr Bulletin, 13(2), 261-276 (1987)).
As used herein, PANSS Marder's negative symptoms factor score (“NSFS”), refers to selection of seven of the PANSS items used by physicians and clinicians to measure the severity of the negative symptoms in a schizophrenia patient. (See Tables 5A and 5B.) The NSFS total score ranges from 7 to 49. (Marder, S. R. et al. “The effects of risperidone on the five dimensions of schizophrenia derived by factor analysis: combined results of the North American trials,” J Clin Psychiatry. 1997; 58:538-46.)
The PANSS was designed to be used in patients with schizophrenia to measure the overall severity of schizophrenic symptoms. The scale has been validated in different cultures and languages and is reliable and acceptable to regulatory health authorities as a primary scale to determine efficacy of intervention in schizophrenia. The name refers to the 2 types of symptoms in schizophrenia, as defined by the American Psychiatric Association: positive symptoms, which refer to an excess or distortion of normal functions (e.g., hallucinations and delusions), and negative symptoms, which represent a diminution or loss of normal functions.
The patient is rated from 1 to 7 on 30 different symptoms based on the interview as well as reports of family members or primary care hospital workers. The original PANSS included 3 groups of symptoms and subscale scores Positive, Negative, and General Psychopathology. Since the inception of PANSS, investigators have proposed additional grouping (structures) of PANSS such as the Marder structure (Marder, S. R. et al. “Issues and perspectives in designing clinical trials for negative symptoms in schizophrenia: consensus statements,” Schizophrenia Bulletin Open. 2020; 1(1). doi:10.1093/schizbullopen/sgz001) and the White structure (White, L. et al. “Empirical assessment of the factorial structure of clinical symptoms in schizophrenia”. Psychopathology. 1997; 30263-274).
The PANSS was assessed at the time points described in Table 4.
The PANSS-derived endpoints used in these studies and the integrated analyses are described in Table 5A and a summary of the individual PANSS items used by physicians and clinicians to measure the severity of the symptoms in a schizophrenia patient is provided in Table 5B. The scale is divided into three parts, a positive scale, which provides a “PANSS positive subscore”, a negative scale, which provides a “PANSS negative subscore”, and general psychopathology scale. The sum of these three parts provides a PANSS total score, which ranges from 30 to 210 (where higher scores indicate more severe symptoms). (See Kay, S. R., et al. “The positive and negative syndrome scale (PANSS) for schizophrenia,” Schizophr Bulletin, 13(2), 261-276 (1987) and Gopal, S., et al. “Improvement of Negative Symptoms in Schizophrenia with Paliperidone Palmitate 1-Month and 3-Month Long-Acting Injectables: Results from a Phase 3 Non-Inferiority Study” Neuropsychiatric Disease and Treatment, 681-690, DOI: 10.2147/NDT.5226296, both of which are incorporated by reference.) […]

“1H-Isoindol-1-one,2-[ [1-[2-(4-fluorophenyl)-2-oxoethyl]-4-piperidinyl]methyl]-2,3-dihydro-, hydrochloride, hydrate (1:1:2) [Roluperidone]” was tested, and the “Effect Size vs Placebo: 20% reduction in NSFS responders” value (32 mg QD, Week 12 DB) was 0.06, the “Effect Size vs Placebo: 30% reduction in NSFS responders” value (32 mg QD, Week 12 DB) was 0 and the “Number of Patients with 20% reduction in NSFS at Week 12” value (32 mg QD, Week 12 DB) was 15/51. For the same substance, the “Number of Patients with 30% reduction in NSFS at Week 12” value (32 mg QD, Week 12 DB) was 2/51, the “Patients with 20% reduction in NSFS at Week 12 (%)” value (32 mg QD, Week 12 DB) was “(29%)” and the “Patients with 30% reduction in NSFS at Week 12 (%)” value (32 mg QD, Week 12 DB) was “(4%)”. For the same substance, the “Change from Baseline LS Mean: 3-Factor General Psychopathology Subscale Score” value (32 mg QD, Week 12 DB) was −1.07, the “Change from Baseline LS Mean: 3-Factor Negative Subscale Score” value (32 mg QD, Week 12 DB) was −3.35 and the “Change from Baseline LS Mean: 3-Factor Positive Subscale Score” value (32 mg QD, Week 12 DB) was 0.46. For the same substance, the “Change from Baseline LS Mean: 5-Factor Activation Score (PSM)” value (32 mg QD, Week 12 DB) was −0.05, the “Change from Baseline LS Mean: 5-Factor Autistic Preoccupation Score (PSM)” value (32 mg QD, Week 12 DB) was −0.85 and the “Change from Baseline LS Mean: 5-Factor Dysphoric Mood Score (PSM)” value (32 mg QD, Week 12 DB) was −0.32. The “Change from Baseline LS Mean: 5-Factor Positive Score (PSM)” value (32 mg QD, Week 12 DB) was 0.58, the “Change from Baseline LS Mean: NSFS (post-hoc)” value (32 mg QD, Week 12 DB) was −3.43 and the “Change from Baseline LS Mean: PANSS Negative Factor Score (pentagonal structure model)” value (32 mg QD, Week 12 DB) was −3.07. For the same substance, the “Change from Baseline LS Mean: PANSS Total Score” value (32 mg QD, Week 12 DB) was −3.66, the “Effect Size vs Placebo: 3-Factor General Psychopathology Subscale Score” value (32 mg QD, Week 12 DB) was 0.23 and the “Effect Size vs Placebo: 3-Factor Negative Subscale Score” value (32 mg QD, Week 12 DB) was 0.54. The “Effect Size vs Placebo: 3-Factor Positive Subscale Score” value (32 mg QD, Week 12 DB) was 0.16, the “Effect Size vs Placebo: 5-Factor Activation Score (PSM)” value (32 mg QD, Week 12 DB) was 0.44 and the “Effect Size vs Placebo: 5-Factor Autistic Preoccupation Score (PSM)” value (32 mg QD, Week 12 DB) was 0.08. The “Effect Size vs Placebo: 5-Factor Dysphoric Mood Score (PSM)” value (32 mg QD, Week 12 DB) was 0.11, the “Effect Size vs Placebo: 5-Factor Positive Score (PSM)” value (32 mg QD, Week 12 DB) was −0.13 and the “Effect Size vs Placebo: NSFS (post-hoc)” value (32 mg QD, Week 12 DB) was 0.61. The “Effect Size vs Placebo: PANSS Negative Factor Score (pentagonal structure model)” value (32 mg QD, Week 12 DB) was 0.45, the “Effect Size vs Placebo: PANSS Total Score” value (32 mg QD, Week 12 DB) was 0.34 and the “Effect Size vs Placebo: 20% reduction in NSFS responders” value (64 mg QD, Week 12 DB) was 0.17. For the same substance, the “Effect Size vs Placebo: 30% reduction in NSFS responders” value (64 mg QD, Week 12 DB) was 0.15, the “Number of Patients with 20% reduction in NSFS at Week 12” value (64 mg QD, Week 12 DB) was 18/54 and the “Number of Patients with 30% reduction in NSFS at Week 12” value (64 mg QD, Week 12 DB) was 7/54. The “Change from Baseline LS Mean: 3-Factor General Psychopathology Subscale Score” value (64 mg QD, Week 12 DB) was −2.58, the “Change from Baseline LS Mean: 3-Factor Negative Subscale Score” value (64 mg QD, Week 12 DB) was −3.82 and the “Change from Baseline LS Mean: 3-Factor Positive Subscale Score” value (64 mg QD, Week 12 DB) was 0.36. For the same substance, the “Change from Baseline LS Mean: 5-Factor Activation Score (PSM)” value (64 mg QD, Week 12 DB) was −0.17, the “Change from Baseline LS Mean: 5-Factor Autistic Preoccupation Score (PSM)” value (64 mg QD, Week 12 DB) was −1.21 and the “Change from Baseline LS Mean: 5-Factor Dysphoric Mood Score (PSM)” value (64 mg QD, Week 12 DB) was −1.04. The “Change from Baseline LS Mean: 5-Factor Positive Score (PSM)” value (64 mg QD, Week 12 DB) was −0.25, the “Change from Baseline LS Mean: NSFS (post-hoc)” value (64 mg QD, Week 12 DB) was −3.9 and the “Change from Baseline LS Mean: PANSS Negative Factor Score (pentagonal structure model)” value (64 mg QD, Week 12 DB) was −3.50. For the same substance, the “Change from Baseline LS Mean: PANSS Total Score” value (64 mg QD, Week 12 DB) was −5.83, the “Effect Size vs Placebo: 3-Factor General Psychopathology Subscale Score” value (64 mg QD, Week 12 DB) was 0.56 and the “Effect Size vs Placebo: 3-Factor Negative Subscale Score” value (64 mg QD, Week 12 DB) was 0.70. The “Effect Size vs Placebo: 3-Factor Positive Subscale Score” value (64 mg QD, Week 12 DB) was 0.20, the “Effect Size vs Placebo: 5-Factor Activation Score (PSM)” value (64 mg QD, Week 12 DB) was 0.49 and the “Effect Size vs Placebo: 5-Factor Autistic Preoccupation Score (PSM)” value (64 mg QD, Week 12 DB) was 0.22. The “Effect Size vs Placebo: 5-Factor Dysphoric Mood Score (PSM)” value (64 mg QD, Week 12 DB) was 0.43, the “Effect Size vs Placebo: 5-Factor Positive Score (PSM)” value (64 mg QD, Week 12 DB) was 0.24 and the “Effect Size vs Placebo: NSFS (post-hoc)” value (64 mg QD, Week 12 DB) was 0.78. The “Effect Size vs Placebo: PANSS Negative Factor Score (pentagonal structure model)” value (64 mg QD, Week 12 DB) was 0.57, the “Effect Size vs Placebo: PANSS Total Score” value (64 mg QD, Week 12 DB) was 0.57 and the “PANSS PSM negative factor score, course in OL period” value (OL period (placebo crossed over) and whole study) was “trend of improvement continued”.
